Experimental data reported in US20250090510A1, “eIF4G1-eIF1 INHIBITORS AND USE THEREOF” (YEDA RESEARCH AND DEVELOPMENT CO. LTD., priority 2022, published 2025).

Test system: near cognate start codon initiation in HEK293T cells
Test: Firefly luciferase reporter with AUG or near cognate start codons
Assay type: cell-based, human
Settings: 5 μM, 16 h
Experimental: FIGS. 4A-L: The effect eIF1-eIF4G1 inhibition by i14G1-10 or i14G1-12 on global translation is linked to start codon stringency. (4A) HEK293T cells were treated with DMSO, i14G1-10 (20 μM), and i14G-20 (10 μM) for 3 h and then ribosome foot printing libraries were prepared, sequenced and analyzed as described in the scheme. The presented graphs show meta-gene analysis of the distribution of normalized reads in the coding region (CDS) and 5′UTR of all analyzed genes in DMSO (black), i14G1-10 (blue), and i14G1-12 (red). […] (4F) The translation efficiency of eIF1 in DMSO, i14G1-10 and i14G1-12 samples calculated from the Ribo-seq data. […] (4J) Scatter plots showing the translation efficiencies correlations (R2 >0.9) of all analyzed genes between the two independent replicate experiments with DMSO (vehicle control) (top), i14G1-10 (middle), and i14G1-12 (bottom). (4K) Scatter plots showing the translation efficiencies correlations between 5′UTR and CDS (Pearson's r >0.5) of all analyzed genes of two independent replicate experiments with i14G1-10 (left) and i14G1-12 (right).
Reporter assays. […] The luminescence was measured on Turner Biosystems Luminometer.
Next, the sequence context of the translation initiation site (TIS) in the ribosome footprints of the 5′UTR in DMSO, i14G1-10 or i14G1-12 samples was determined. To assign the 5′UTR TISs, the Hrr+CHX reads were used (see Materials and Methods). […]

| Structure (SMILES) | near cognate start codon reporter activities relative to AUG |
| --- | --- |
| Cn1ccnc1S/C(=C/C=C(C#N)C#N)c1ccc(Cl)cc1 [i14G1-12] | significantly enhanced the activities of ACG, CUG, GUG, and UUG relative to AUG |
| O=C(/C=C/Sc1ccc(C(F)(F)F)cn1)c1ccccc1 [i14G1-10] | significantly enhanced the activities of ACG, CUG, GUG, and UUG relative to AUG |
